Test [1] deals with Arabidopsis drought tolerance. Description: Arabidopsis drought tolerance analysis. Particulars: 50 μM spray, water withheld 12 days, then rehydrated. The format is in vivo. Here is the method:
The effects of (-)-Abz-[…] were also determined relative to stomatal apertures. Arabidopsis grown in soil pots underwent moderate drought stress under the optimal growth conditions of 22 °C and 60% relative humidity. Under these growth conditions, the leaf surface temperature of the mock-treated controls was 19.5 °C, which was lower than the surrounding atmospheric temperature because of transpirational water loss (Fig. 6a,b)[30]. […] Finally, we examined the effects of (-)-Abz-[…] on drought tolerance under more practical conditions. Three-week-old Arabidopsis were sprayed with an aqueous solution containing 50 μM (-)-Abz-[…]. Water was not supplied for 12 days, and then the plants were rehydrated. […] We also tested the effects of (-)-Abz-[…] on a monocot crop, maize, to evaluate whether (-)-Abz-[…] affected stomatal movement and enhanced ABA response across plant species. […] Thus, the effects of (-)-Abz-[…] were not restricted to the model plant Arabidopsis. Figure 6 Effects of (-)-Abz-[…] on Arabidopsis drought tolerance. (a,b) Three-week-old plants were treated with 50 μM of (-)-Abz-[…] and incubated overnight at 22 °C with 60% relative humidity. Thermal images of plants were obtained using a thermal imaging camera ([…], Nippon Avionics Co., Ltd.), and the average temperatures on leaf surfaces were determined with NS9200 software (n = 5, error bars represent s.d.). […]

The subject of test [2] is Arabidopsis stomata / leaf surface temperature. Description: Thermal imaging and stomatal aperture in Arabidopsis. Format: in vivo. Here is the method:
The effects of (-)-Abz-[…] were also determined relative to stomatal apertures. Arabidopsis grown in soil pots underwent moderate drought stress under the optimal growth conditions of 22 °C and 60% relative humidity. Under these growth conditions, the leaf surface temperature of the mock-treated controls was 19.5 °C, which was lower than the surrounding atmospheric temperature because of transpirational water loss (Fig. 6a,b)[30]. […] Finally, we examined the effects of (-)-Abz-[…] on drought tolerance under more practical conditions. Three-week-old Arabidopsis were sprayed with an aqueous solution containing 50 μM (-)-Abz-[…]. Water was not supplied for 12 days, and then the plants were rehydrated. […] We also tested the effects of (-)-Abz-[…] on a monocot crop, maize, to evaluate whether (-)-Abz-[…] affected stomatal movement and enhanced ABA response across plant species. […] Thus, the effects of (-)-Abz-[…] were not restricted to the model plant Arabidopsis. Figure 6 Effects of (-)-Abz-[…] on Arabidopsis drought tolerance. (a,b) Three-week-old plants were treated with 50 μM of (-)-Abz-[…] and incubated overnight at 22 °C with 60% relative humidity. Thermal images of plants were obtained using a thermal imaging camera ([…], Nippon Avionics Co., Ltd.), and the average temperatures on leaf surfaces were determined with NS9200 software (n = 5, error bars represent s.d.). Representative images are shown in (a). (c) Stomatal apertures after the application of 50 μM (-)-Abz-[…]. After an overnight incubation, plants were placed at 22 °C with ~90% relative humidity for 1 h. Stomatal images were obtained using Suzuki's universal micro-printing method. […] (d) Effects of (-)-Abz-[…] on endogenous ABA levels. Four-week old plants grown in soil pots were treated with 50 μM (-)-Abz-[…], and leaves were harvested after an overnight incubation. Values are means with s.d. (n = 6). (e) Four-week-old plants were subjected to drought stress by withholding water. […]

The next test has as its system endogenous ABA level. Description: Endogenous ABA levels in maize. The format is in vivo, Maize (cv. Gold rush). The note with it: maize 2-week-old seedlings, roots dipped in 100 μM overnight, aerial shoot tissues.
A further test has as its system maize stomatal movement. Description: Thermal imaging and transpirational water loss analysis in maize. Particulars: 10 mL of 100 μM sprayed per plant, overnight. Format: in vivo. As for the experimental part: The effects of (-)-Abz-[…] were also determined relative to stomatal apertures. Arabidopsis grown in soil pots underwent moderate drought stress under the optimal growth conditions of 22 °C and 60% relative humidity. Under these growth conditions, the leaf surface temperature of the mock-treated controls was 19.5 °C, which was lower than the surrounding atmospheric temperature because of transpirational water loss (Fig. 6a,b)[30]. […] Finally, we examined the effects of (-)-Abz-[…] on drought tolerance under more practical conditions. Three-week-old Arabidopsis were sprayed with an aqueous solution containing 50 μM (-)-Abz-[…]. Water was not supplied for 12 days, and then the plants were rehydrated. […] We also tested the effects of (-)-Abz-[…] on a monocot crop, maize, to evaluate whether (-)-Abz-[…] affected stomatal movement and enhanced ABA response across plant species. […] Thus, the effects of (-)-Abz-[…] were not restricted to the model plant Arabidopsis. Figure 7 Effects of (-)-Abz-[…] on maize. (a) Thermal images of the leaf surface temperatures of (-)-Abz-[…]-treated maize plants. (b) Leaf surface temperatures of (-)-Abz-[…]-treated maize plants. The stomatal conductance (c) and transpiration rate (d) in (-)-Abz-[…]-treated maize at different light intensities. […] Values are means with s.d. (n = 4 for leaf surface temperature, n = 3 for stomatal conductance and transpiration rate). (e) Effects of (-)-Abz-[…] on endogenous ABA levels. (f) Expression levels of ZmLEA, Zm.12309.1.S and ZmCOR410 after the (-)-Abz-[…] treatment. […] After an overnight incubation, the conductance and transpiration rate were analysed using an LI-6400 (Li-Cor Biosciences), and the leaf surface temperatures were measured using a thermal imaging camera ([…], Nippon Avionics Co., Ltd.) in the glass house. Temperatures on the leaf surfaces were analysed by NS9200 software (Nippon Avionics Co., Ltd.).

Test [3] concerns Arabidopsis seed germination. Description: Arabidopsis seed germination assay. The format is in vivo, Arabidopsis (Columbia accession). Here is the method: Figure 3 Effects of (−)-Abz-T compounds on Arabidopsis seed germination compared with that of (−)-Abz-E2B. Seed germination rates in the presence of 0.1 μM ABA and the indicated concentrations of azole inhibitors at a time when the germination rate of plants treated only with ABA was 80% (n = 3; error bars represent s.d.). Compound 6 is also referred to as Abz-E3M.
For the Arabidopsis seed germination assay, 25 to 40 seeds (Columbia accession) were sterilised successively by soaking in 70% EtOH for 30 min and reagent-grade EtOH for 1 min. They were then soaked in distilled water and incubated in the darkness at 5 °C for 3 d. The stratified seeds were then soaked in 100 μL of a test medium liquid agar in 96-well plates and allowed to germinate under continuous illumination at 22 or 30 °C. In these assays, we used the classic definition of radical emergence for seed germination. All of the assays were conducted at least three times.

The values below come from PMC5107945, “Abscinazole-E3M, a practical inhibitor of abscisic acid 8′-hydroxylase for improving drought tolerance” (Scientific Reports, 2016).

As to abscinazole-E3M [(−)-6], the “Drought tolerance and survival” value in test [1] was “induced significant drought tolerance and increased the survival rate”. For the same substance, the Transpirational water loss entry in test [2] (50 μM spray, overnight) is listed as “reduced the water loss”. Further, in test [2] (50 μM spray, overnight, 22 °C, 60% relative humidity), the Leaf surface temperature result is “increased leaf temperatures”. The Stomatal aperture result in test [2] (50 μM, overnight then ~90% relative humidity 1 h) was “led to stomatal closure”. In the test on endogenous ABA level, the “Endogenous ABA levels” value is “increased the endogenous ABA levels”. In the test with maize stomatal movement, the Leaf surface temperature result is on record as “increased the leaf surface temperature”, the Stomatal conductance result was “suppressed” and the Transpiration rate entry is “suppressed”. Further, the “Effect on Arabidopsis seed germination under high temperature conditions” value in test [3] (30 °C, thermoinhibition, Fig. S3) was “inhibited Arabidopsis seed germination”. Also, in test [3] (co-treatment with ABA (0.1 μM)), the “Potency in enhancing ABA's effects on seed germination relative to (−)-Abz-E2B” value amounted to 10 fold. In addition, the “Effect on ABA's inhibition of Arabidopsis seed germination” value in test [3] (in the presence of 0.1 μM ABA, Fig. 3) is on record as “enhanced the effects of ABA”.
